Measured values: the supplement of paper PMC13207355
Where a name gives a salt, the structure may show the parent alone.

What was measured:
Details in all cases: exposure time: 72 h
E13 [1] = patient-derived glioblastoma stem cells of classical subtype; assay: surviving fraction (nuclei count normalised to DMSO); higher = more cells surviving (less toxic)
E21 [2] = patient-derived glioblastoma stem cells of mesenchymal subtype; assay: as above
E28 [3] = patient-derived glioblastoma stem cells of classical subtype; assay: as above
E31 [4] = patient-derived glioblastoma stem cells of proneural subtype; assay: as above
E34 [5] = patient-derived glioblastoma stem cells of proneural subtype; assay: as above
E57 [6] = patient-derived glioblastoma stem cells of mesenchymal subtype; assay: as above
FT3469 [7] = normal neural stem cell line; assay: as above
E13 [8] = assay: phenotypic distance (Euclidean, principal components) from DMSO controls (arbitrary units); higher = stronger morphological change
E21 [9] = assay: as above
E28 [10] = assay: as above
E31 [11] = assay: as above
E34 [12] = assay: as above
E57 [13] = assay: as above
FT3469 [14] = assay: as above
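Wherever phenotypic distance (Euclidean, principal components) from DMSO controls is given: cell Painting imaging in 384-well plates, CellProfiler features reduced to at least 20 principal components, Euclidean distance versus same-plate DMSO vehicle wells (0.1% v/v), median over six images per well.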
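Wherever surviving fraction (nuclei count normalised to DMSO) is given: nuclei counted by high-content imaging of Hoechst-stained cells in laminin-coated 384-well plates, relative to 0.1% DMSO vehicle wells, with staurosporine as cell-death control.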

CNCCCC12CCC(c3ccccc31)c1ccccc12 [Maprotiline hydrochloride]
Details	phenotypic distance	surviving fraction
E13 [1], 4.1 nM	–	0.984
E13 [1], 12.3 nM	–	1.05
E13 [1], 37 nM	–	0.987
E13 [1], 111.1 nM	–	1.05
E13 [1], 333.3 nM	–	1.1
E13 [1], 1000 nM	–	1.05
E13 [1], 3000 nM	–	0.911
E13 [8], 4.1 nM	0.553	–
E13 [8], 12.3 nM	0.296	–
E13 [8], 37 nM	0.356	–
E13 [8], 111.1 nM	0.55	–
E13 [8], 333.3 nM	0.608	–
E13 [8], 1000 nM	0.471	–
E13 [8], 3000 nM	0.392	–
E21 [2], 4.1 nM	–	1.04
E21 [2], 12.3 nM	–	0.944
E21 [2], 37 nM	–	0.982
E21 [2], 111.1 nM	–	1.06
E21 [2], 333.3 nM	–	1.02
E21 [2], 1000 nM	–	1.03
E21 [2], 3000 nM	–	1.06
E21 [9], 4.1 nM	0.674	–
E21 [9], 12.3 nM	1.04	–
E21 [9], 37 nM	0.745	–
E21 [9], 111.1 nM	1.03	–
E21 [9], 333.3 nM	0.9	–
E21 [9], 1000 nM	0.798	–
E21 [9], 3000 nM	0.546	–
E28 [3], 4.1 nM	–	1.23
E28 [3], 12.3 nM	–	0.929
E28 [3], 37 nM	–	0.979
E28 [3], 111.1 nM	–	1.21
E28 [3], 333.3 nM	–	1.13
E28 [3], 1000 nM	–	0.951
E28 [3], 3000 nM	–	0.979
E28 [10], 4.1 nM	0.756	–
E28 [10], 12.3 nM	0.57	–
E28 [10], 37 nM	0.744	–
E28 [10], 111.1 nM	0.651	–
E28 [10], 333.3 nM	0.753	–
E28 [10], 1000 nM	0.525	–
E28 [10], 3000 nM	0.615	–
E31 [4], 4.1 nM	–	1.07
E31 [4], 12.3 nM	–	1.06
E31 [4], 37 nM	–	1.02
E31 [4], 111.1 nM	–	0.859
E31 [4], 333.3 nM	–	1.18
E31 [4], 1000 nM	–	1.05
E31 [4], 3000 nM	–	1.01
E31 [11], 4.1 nM	0.322	–
E31 [11], 12.3 nM	0.404	–
E31 [11], 37 nM	0.529	–
E31 [11], 111.1 nM	0.826	–
E31 [11], 333.3 nM	0.77	–
E31 [11], 1000 nM	0.546	–
E31 [11], 3000 nM	0.55	–
E34 [5], 4.1 nM	–	1.04
E34 [5], 12.3 nM	–	0.869
E34 [5], 37 nM	–	0.875
E34 [5], 111.1 nM	–	1.01
E34 [5], 333.3 nM	–	1.02
E34 [5], 1000 nM	–	0.997
E34 [5], 3000 nM	–	1.07
E34 [12], 4.1 nM	0.824	–
E34 [12], 12.3 nM	0.524	–
E34 [12], 37 nM	0.568	–
E34 [12], 111.1 nM	1.03	–
E34 [12], 333.3 nM	0.644	–
E34 [12], 1000 nM	1.11	–
E34 [12], 3000 nM	0.788	–
E57 [6], 4.1 nM	–	1.06
E57 [6], 12.3 nM	–	1.12
E57 [6], 37 nM	–	1.09
E57 [6], 111.1 nM	–	1.1
E57 [6], 333.3 nM	–	0.986
E57 [6], 1000 nM	–	0.93
E57 [6], 3000 nM	–	1.09
E57 [13], 4.1 nM	0.339	–
E57 [13], 12.3 nM	0.804	–
E57 [13], 37 nM	0.81	–
E57 [13], 111.1 nM	0.882	–
E57 [13], 333.3 nM	0.422	–
E57 [13], 1000 nM	0.498	–
E57 [13], 3000 nM	0.628	–
FT3469 [7], 4.1 nM	–	1.09
FT3469 [7], 12.3 nM	–	1.18
FT3469 [7], 37 nM	–	1.3
FT3469 [7], 111.1 nM	–	1.07
FT3469 [7], 333.3 nM	–	0.901
FT3469 [7], 1000 nM	–	1.16
FT3469 [7], 3000 nM	–	0.869
FT3469 [14], 4.1 nM	0.707	–
FT3469 [14], 12.3 nM	0.982	–
FT3469 [14], 37 nM	0.677	–
FT3469 [14], 111.1 nM	1.1	–
FT3469 [14], 333.3 nM	0.895	–
FT3469 [14], 1000 nM	1.08	–
FT3469 [14], 3000 nM	0.56	–

COC(=O)Nc1nc2cc(C(=O)c3ccccc3)ccc2[nH]1 [Mebendazole]
Details	phenotypic distance	surviving fraction
E13 [1], 4.1 nM	–	0.79
E13 [1], 12.3 nM	–	0.88
E13 [1], 37 nM	–	0.816
E13 [1], 111.1 nM	–	0.465
E13 [1], 333.3 nM	–	0.22
E13 [1], 1000 nM	–	0.203
E13 [1], 3000 nM	–	0.221
E13 [8], 4.1 nM	1.43	–
E13 [8], 12.3 nM	1.24	–
E13 [8], 37 nM	2.04	–
E13 [8], 111.1 nM	4.4	–
E13 [8], 333.3 nM	7.15	–
E13 [8], 1000 nM	6.93	–
E13 [8], 3000 nM	7.2	–
E21 [2], 4.1 nM	–	0.964
E21 [2], 12.3 nM	–	0.942
E21 [2], 37 nM	–	0.868
E21 [2], 111.1 nM	–	0.707
E21 [2], 333.3 nM	–	0.138
E21 [2], 1000 nM	–	0.144
E21 [2], 3000 nM	–	0.187
E21 [9], 4.1 nM	1.49	–
E21 [9], 12.3 nM	1.54	–
E21 [9], 37 nM	1.52	–
E21 [9], 111.1 nM	2.75	–
E21 [9], 333.3 nM	7.72	–
E21 [9], 1000 nM	7.67	–
E21 [9], 3000 nM	6.82	–
E28 [3], 4.1 nM	–	1.01
E28 [3], 12.3 nM	–	0.992
E28 [3], 37 nM	–	0.943
E28 [3], 111.1 nM	–	0.731
E28 [3], 333.3 nM	–	0.444
E28 [3], 1000 nM	–	0.288
E28 [3], 3000 nM	–	0.426
E28 [10], 4.1 nM	0.755	–
E28 [10], 12.3 nM	0.838	–
E28 [10], 37 nM	1.05	–
E28 [10], 111.1 nM	2.06	–
E28 [10], 333.3 nM	3.8	–
E28 [10], 1000 nM	4.27	–
E28 [10], 3000 nM	4.73	–
E31 [4], 4.1 nM	–	0.817
E31 [4], 12.3 nM	–	0.859
E31 [4], 37 nM	–	0.71
E31 [4], 111.1 nM	–	0.417
E31 [4], 333.3 nM	–	0.132
E31 [4], 1000 nM	–	0.1
E31 [4], 3000 nM	–	0.114
E31 [11], 4.1 nM	1.27	–
E31 [11], 12.3 nM	0.909	–
E31 [11], 37 nM	1.1	–
E31 [11], 111.1 nM	2.77	–
E31 [11], 333.3 nM	5.6	–
E31 [11], 1000 nM	5.55	–
E31 [11], 3000 nM	4.51	–
E34 [5], 4.1 nM	–	0.922
E34 [5], 12.3 nM	–	0.961
E34 [5], 37 nM	–	0.917
E34 [5], 111.1 nM	–	0.664
E34 [5], 333.3 nM	–	0.432
E34 [5], 1000 nM	–	0.403
E34 [5], 3000 nM	–	0.384
E34 [12], 4.1 nM	0.931	–
E34 [12], 12.3 nM	0.785	–
E34 [12], 37 nM	1.36	–
E34 [12], 111.1 nM	2.23	–
E34 [12], 333.3 nM	3.56	–
E34 [12], 1000 nM	3.98	–
E34 [12], 3000 nM	6.31	–
E57 [6], 4.1 nM	–	1
E57 [6], 12.3 nM	–	1.06
E57 [6], 37 nM	–	0.876
E57 [6], 111.1 nM	–	0.784
E57 [6], 333.3 nM	–	0.148
E57 [6], 1000 nM	–	0.0727
E57 [6], 3000 nM	–	0.092
E57 [13], 4.1 nM	1.09	–
E57 [13], 12.3 nM	0.846	–
E57 [13], 37 nM	1.77	–
E57 [13], 111.1 nM	2.71	–
E57 [13], 333.3 nM	5.36	–
E57 [13], 1000 nM	5.62	–
E57 [13], 3000 nM	4.64	–
FT3469 [7], 4.1 nM	–	0.984
FT3469 [7], 12.3 nM	–	1.02
FT3469 [7], 37 nM	–	0.772
FT3469 [7], 111.1 nM	–	0.663
FT3469 [7], 333.3 nM	–	0.648
FT3469 [7], 1000 nM	–	0.56
FT3469 [7], 3000 nM	–	0.566
FT3469 [14], 4.1 nM	0.995	–
FT3469 [14], 12.3 nM	0.806	–
FT3469 [14], 37 nM	0.927	–
FT3469 [14], 111.1 nM	2.1	–
FT3469 [14], 333.3 nM	3.21	–
FT3469 [14], 1000 nM	3.43	–
FT3469 [14], 3000 nM	3.34	–
